The molecules below were run on GABAA receptors (assay: Electrophysiology assay (two-electrode voltage clamp, Xenopus oocytes expressing GABAA receptors)). Settings: positive (Pos) or negative (Neg) modulation of current at GABA EC20, screening concentration of 10 μM.
Assay type: cell-based
Description: The modulation of GABAA function is determined by changes in current as determined in an electrophysiology assay, as is detailed below.
mRNA was prepared from lyophilized plasmid pellets containing cDNA inserts encoding the specific GABAA receptor subunit. cDNAs encoding the α2, α3, and γ3 subunits were subcloned into pBluescript, SK^−. cDNAs encoding the a 1 and a 5 subunits were subcloned into prC while cDNA encoding the β2 subunit was subcloned into pcDNA1. The cDNA construct encoding the g 2s subunit is in the pGH19 expression construct. Overnight cultures of transformed DH5a bacterial cells were performed to grow sufficient quantities for maxiprep isolation of the plasmid cDNA. The resulting plasmid cDNA was linearized by digestion with an appropriate restriction enzyme that cleaves distal to the cDNA insert [XbaI (α1, β2), NotI (α3, γ2 s), SacII (α2), or ApaI (α5)]. Following digestion, plasmid cDNA was treated with proteinase K and extracted with phenol/chloroform/isoamyl alcohol, followed by ethanol precipitation. cDNA quality was assessed by agarose-gel electrophoresis (1.5% agarose gel). Samples were stored at −20° C. until use. In vitro transcription was performed with T7 RNA polymerase. mRNA was then stored at −80° C. until use. Plasmids were linearized with appropriate restriction enzymes before in vitro transcription using the Message Machine kit (Ambion, Austin, Tex.).
GABAA receptor expression in Xenopus oocytes: Following 45 min of 0.15% Tricaine anesthesia, an ovarian section containing the follicular oocytes was removed from the frog through a lateral abdominal incision. Oocytes were immediately placed in a calcium-free solution (NaCl 96 mM, MgCl2 1 mM, KCl 2 mM, Hepes 50 mM, pyruvate 2.5 mM, gentamycin 100 μg/mL, penicillin-streptomycin 50 U/mL, pH 7.4). Following 1.5-2 hour incubation in 0.2% collagenase (type II, Sigma Chemical Co., St. Louis, Mo.) at room temperature, individual Dumont stage V and VI oocytes were transferred to an incubator and maintained overnight in Barth's solution (NaCl 84 mM, NaHCO3 2.4 mM, MgSO4 0.82 mM, KCl 1 mM, Ca(NO3)2 0.33 mM, CaCl2 0.41 mM, Tris/HCl 7.5 mM, pyruvate 2.5 mM, gentamycin 50 μg/mL, penicillin-streptomycin, 100 units/mL, pH 7.4) at 18-20° C. and used for experiments 1-5 days post-injection. Oocytes were injected solution using an electronic microinjector (Drummond, Broomall, Pa.) with 50 nL of RNA containing 0.3-0.5 ng of each subunit RNA in a 1:1:2 ratio. The injected oocytes were used for experiments after 1-5 days of incubation in Barth's solution at 18-20° C.
Measurements of ion currents from oocytes expressing GABAA receptors were performed using a Warner two-electrode voltage-clamp amplifier (Warner Instruments, Inc., Foster City, Calif.) (Park-Chung, M. A., et al. (1999) Brain Res. 830: 72-87 incorporated herein in its entirety). Microelectrodes were fabricated from borosilicate glass capillaries with a programmed pipette puller (Sutter Instrument Co., CA). Microelectrode resistance was 1-3 MΩ when filled with 3 M KCl. The oocyte recording chamber was continuously perfused with ND-96 solution. Oocytes were clamped at a holding potential of −70 mV during data acquisition. The membrane current was filtered at 10 Hz and sampled at 100 Hz. Compounds were applied by a gravity-driven external perfusion system. The working volume of the recording chamber was […] and the rate of the perfusion was approximately […]. Compound application was 20-25 sec followed by a minimum of 150 sec wash. Data acquisition and external perfusion was computer controlled by custom-developed software. All experiments were performed at room temperature (22-24° C.). Dose-response data from each oocyte were fitted to the Hill equation by non-linear regression using the equation: IGABA=Emax/(1+(EC50/c)nH)
Emax is the maximum response, EC50 is the concentration producing 50% of the maximal response, nH is the Hill coefficient and c is the concentration of agonist. […]

| Molecule | EP Result |
| --- | --- |
| O=c1c2c[nH]c3ccc(N4CCNCC4)cc3c-2nn1-c1ccccc1 [7a, 2-Phenyl-8-piperazin-1-yl-2,5-dihydro-pyrazolo[4,3-c]quinolin-3-one] | Pos |
| CN1CCN(c2ccc3[nH]cc4c(=O)n(-c5ccccc5)nc-4c3c2)CC1 [7b, 8-(4-Methylpiperazin-1-yl)-2-phenyl-2,5-dihydro-pyrazolo[4,3-c]quinolin-3-one] | Pos |
| O=c1c2c[nH]c3ccc(N4CCNCC4)cc3c-2nn1-c1ccc(Cl)cc1 [7c, 2-(4′-Chlorophenyl)-8-piperazin-1-yl-2,5-dihydro-pyrazolo[4,3-c]quinolin-3-one] | Pos |

Results, then the molecule that gave them:

| EP Result | Molecule |
| --- | --- |
| Neg | O=c1c2c[nH]c3c(N4CCOCC4)cc(N4CCOCC4)cc3c-2nn1-c1ccccc1 [58a, 6,8-Bis(morpholin-4-yl)-2-phenyl-2,5-dihydro-pyrazolo[4,3-c]quinolin-3-one] |
| Neg | CC(C)N1CCN(c2cc(N3CCN(C(C)C)CC3)c3[nH]cc4c(=O)n(-c5ccccc5)nc-4c3c2)CC1 [58b, 6,8-Bis(4-iso-propylpiperazin-1-yl)-2-phenyl-2,5-dihydro-pyrazolo[4,3-c]quinolin-3-one] |

The molecules below were run against GABAA central benzodiazepine receptor (assay: Benzodiazepine binding assay ((3H)-flunitrazepam displacement)). Settings: read-out: BZ binding assay (IC50); rat whole brain (except cerebellum), 1 nM (3H)-flunitrazepam, 60 minutes at 25° C.; 3-concentration dose response curve.

| Molecule | IC50 [µM] |
| --- | --- |
| 2-Phenyl-6-(4-iso-propylpiperazin-1-yl)-8-trifluoromethyl-2,5-dihydro-pyrazolo[4,3-c]quinolin-3-one [52d] | < 1 |
| O=c1c2c[nH]c3ccc(N4CCNCC4)cc3c-2nn1-c1ccccc1 [7a, 2-Phenyl-8-piperazin-1-yl-2,5-dihydro-pyrazolo[4,3-c]quinolin-3-one] | < 1 |
| CN1CCN(c2ccc3[nH]cc4c(=O)n(-c5ccccc5)nc-4c3c2)CC1 [7b, 8-(4-Methylpiperazin-1-yl)-2-phenyl-2,5-dihydro-pyrazolo[4,3-c]quinolin-3-one] | < 1 |
| O=c1c2c[nH]c3ccc(N4CCNCC4)cc3c-2nn1-c1ccc(Cl)cc1 [7c, 2-(4′-Chlorophenyl)-8-piperazin-1-yl-2,5-dihydro-pyrazolo[4,3-c]quinolin-3-one] | < 1 |
| CC1CN(c2ccc3[nH]cc4c(=O)n(-c5ccccc5)nc-4c3c2)CC(C)O1 (centres unmarked) [19h, 8-(2,6-Dimethylmorpholin-4-yl)-2-phenyl-2,5-dihydro-pyrazolo[4,3-c]quinolin-3-one] | < 1 |
| O=c1c2c[nH]c3cc(N4CCNCC4)c(F)cc3c-2nn1-c1ccccc1 [28a, 8-Fluoro-2-phenyl-7-piperazin-1-yl-2,5-dihydro-pyrazolo[4,3-c]quinolin-3-one] | < 1 |
| CN(C)C1CCN(c2cc3[nH]cc4c(=O)n(-c5ccccc5)nc-4c3cc2F)CC1 [28i, 7-(4-Dimethylaminopiperidin-1-yl)-8-fluoro-2-phenyl-2,5-dihydro-pyrazolo[4,3-c]quinolin-3-one] | < 1 |
| O=c1c2c[nH]c3cc(N4CCN(C5CCCC5)CC4)c(F)cc3c-2nn1-c1ccccc1 [28j, 7-(4-Cyclopentylpiperazin-1-yl)-8-fluoro-2-phenyl-2,5-dihydro-pyrazolo[4,3-c]quinolin-3-one] | < 1 |
| O=c1c2c[nH]c3cc(N4CCC(O)CC4)c(F)cc3c-2nn1-c1ccccc1 [28k, 8-Fluoro-7-(4-hydroxypiperidin-1-yl)-2-phenyl-2,5-dihydro-pyrazolo[4,3-c]quinolin-3-one] | < 1 |
| O=c1c2c[nH]c3cc(N4CCCNCC4)c(F)cc3c-2nn1-c1ccccc1 [28l, 8-Fluoro-7-(perhydro[1,4]-diazepin-1-yl)-2-phenyl-2,5-dihydro-pyrazolo[4,3-c]quinolin-3-one] | < 1 |
| CN1CCCN(c2cc3[nH]cc4c(=O)n(-c5ccccc5)nc-4c3cc2F)CC1 [28m, 8-Fluoro-7-(4-methylperhydro[1,4]-diazepin-1-yl)-2-phenyl-2,5-dihydro-pyrazolo[4,3-c]quinolin-3-one] | < 1 |
| O=c1c2c[nH]c3cc(N4CCNCC4)c(F)cc3c-2nn1-c1ccccc1F [28n, 8-Fluoro-2-(2-fluorophenyl)-7-(piperazin-1-yl)-2,5-dihydro-pyrazolo[4,3-c]quinolin-3-one] | > 1 |
| CN1CCN(c2cc3[nH]cc4c(=O)n(-c5ccccc5F)nc-4c3cc2F)CC1 [28o, 8-fluoro-2-(2-fluorophenyl)-7-(4-methylpiperazin-1-yl)-2,5-dihydro-pyrazolo[4,3-c]quinolin-3-one] | < 1 |
| CN1CCN(c2cc3[nH]cc4c(=O)n(-c5ccsc5)nc-4c3cc2F)CC1 [28q, 8-fluoro-7-(4-methylpiperazin-1-yl)-2-(thiophen-3-yl)-2,5-dihydro-pyrazolo[4,3-c]quinolin-3-one] | > 1 |
| O=c1c2c[nH]c3cc(N4CCOCC4)c(F)cc3c-2nn1-c1ccsc1 [28r, 8-fluoro-7-(morpholin-4-yl)-2-(thiophen-3-yl)-2,5-dihydro-pyrazolo[4,3-c]quinolin-3-one] | < 1 |
| O=c1c2c[nH]c3c(F)c(N4CCNCC4)ccc3c-2nn1-c1ccccc1 [48a, 6-Fluoro-2-phenyl-7-piperazin-1-yl-2,5-dihydro-pyrazolo[4,3-c]quinolin-3-one] | > 1 |
| CN1CCN(c2ccc3c4nn(-c5ccccc5)c(=O)c-4c[nH]c3c2F)CC1 [48b, 6-Fluoro-7-(4-methyl-piperazin-1-yl)-2-phenyl-2,5-dihydro-pyrazolo [4,3-c]quinolin-3-one] | > 1 |
| O=c1c2c[nH]c3c(F)c(N4CCOCC4)ccc3c-2nn1-c1ccccc1 [48c, 6-Fluoro-7-(morpholin-4-yl)-2-phenyl-2,5-dihydro-pyrazolo[4,3-c]quinolin-3-one] | < 1 |
| O=c1c2c[nH]c3c(F)c(N4CCCNCC4)ccc3c-2nn1-c1ccccc1 [48d, 6-Fluoro-7-(perhydro[1,4]-diazepine-1-yl)-2-phenyl-2,5-dihydro-pyrazolo[4,3-c]quinolin-3-one] | < 1 |
| CC(C)N1CCN(c2ccc3c4nn(-c5ccccc5)c(=O)c-4c[nH]c3c2F)CC1 [48e, 6-Fluoro-7-(4-iso-propylpiperazin-1-yl)-2-phenyl-2,5-dihydro-pyrazolo [4,3-c]quinolin-3-one] | < 1 |
| CC(C)N1CCN(c2ccc3c4nn(-c5ccccn5)c(=O)c-4c[nH]c3c2F)CC1 [48f, 6-Fluoro-7-(4-iso-propylpiperazin-1-yl)-2-(2′-pyridyl)-2,5-dihydro-pyrazolo[4,3-c]quinolin-3-one] | < 1 |
| O=c1c2c[nH]c3cc(N4CCOCC4)c(F)c(N4CCOCC4)c3c-2nn1-c1ccccc1 [compound 55, 7,9-Bis(morpholin-4-yl)-8-fluoro-2-phenyl-2,5-dihydro-pyrazolo[4,3-c]quinolin-3-one] | < 1 |

Results, then the molecule that gave them:

| IC50 [µM] | Molecule |
| --- | --- |
| < 1 | O=c1c2c[nH]c3c(N4CCNCC4)cc(C(F)(F)F)cc3c-2nn1-c1ccccc1 [52a, 2-Phenyl-6-piperazin-1-yl-8-trifluoromethyl-2,5-dihydro-pyrazolo[4,3-c]quinolin-3-one] |
| < 1 | CN1CCN(c2cc(C(F)(F)F)cc3c4nn(-c5ccccc5)c(=O)c-4c[nH]c23)CC1 [52b, 2-Phenyl-6-(4-methylpiperazin-1-yl)-8-trifluoromethyl-2,5-dihydro-pyrazolo[4,3-c]quinolin-3-one] |
| < 1 | O=c1c2c[nH]c3c(N4CCCNCC4)cc(C(F)(F)F)cc3c-2nn1-c1ccccc1 [52c, 2-Phenyl-6-(perhydro[1,4]-diazepine-1-yl)-8-trifluoromethyl-2,5-dihydro-pyrazolo[4,3-c]quinolin-3-one] |
| > 1 | Cc1[nH]c2cc(N3CCNCC3)c(F)cc2c2nn(-c3ccccc3)c(=O)c1-2 [63a, 8-Fluoro-4-methyl-2-phenyl-7-piperazin-1-yl-2,5-dihydro-pyrazolo[4,3-c]quinolin-3-one] |
| > 1 | Cc1[nH]c2cc(N3CCOCC3)c(F)cc2c2nn(-c3ccccc3)c(=O)c1-2 [63b, 8-Fluoro-4-methyl-7-morpholin-4-yl-2-phenyl-2,5-dihydro-pyrazolo [4,3-c]quinolin-3-one] |

From patent publication US8598159B2, “Therapeutic pyrazoloquinoline derivatives” (Dart Neuroscience (Cayman) Ltd., priority 2007, dated 2013)
